Laboratory results published in patent publication US20080214518A1, “Pharmaceutical Composition Comprising an Anti-Bacterial Agent and an Active Ingredient Selected From Carveol, Thymol, Eugenol, Borneol and Carvacrol” (priority 2005, published 2008).
In brackets after ≈: the same amount, converted by molar mass. Where two headings read alike, the source gives them in different places.

How the values were obtained:
[1] = system: Klebsiella pneumoniae; experiment: Static tests to determine MBC; assay type: cell-based; details: carveol alone, Table 1
Description: (§1) The experiment was carried out with several Gram-negative and Gram-positive bacterial strains with different susceptibilities isolated in the hospital environment.
(§2) Antibacterial pharmaceutical compositions according to the invention were prepared by mixing amoxicillin at different concentrations with carveol at a sub-inhibitory concentration of 0.3 g per liter of solution or excipient (equivalent to 0.3 mg/ml). The minimal concentration of amoxicillin in combination with carveol 0.3 mg/ml that produced a bactericidal effect was determined. In each case, antibiotic activity was determined either with amoxicillin alone, or with carveol alone, or with the composition of the invention.

[2] = system: Bacillus subtilis; experiment: Static tests to determine MIC and MBC; assay type: cell-based; details: for MIC: antibiotic alone
Description: as §1, §2
(§3) The experiment was carried out with several resistant bacterial strains isolated in the hospital environment. The antibiotic used was ampicillin, from the beta-lactam family, which is one of the most widely used antibiotics. An antibiotic pharmaceutical composition according to the invention was prepared by mixing ampicillin at different concentrations with carveol at a sub-inhibitory concentration of 0.3 g per liter of solution or excipient. This pharmaceutical composition of the invention was named Ampi-P, for potentiated ampicillin. In each case, antibiotic activity was determined either with ampicillin alone, or with carveol alone, or with the composition of the invention.
(§4) The experiment was carried out with several resistant bacterial strains isolated in the hospital environment. The antibiotic used was cephazolin, from the cephalosporin family, another class of beta-lactams which are among the most widely used antibiotics. An antibiotic pharmaceutical composition according to the invention was prepared by mixing cephazolin at different concentrations with alpha-ionone and beta-ionone at a sub-inhibitory concentration of 0.3 g per liter of solution or excipient. This pharmaceutical composition of the invention was named Cepha-P, for potentiated cephazolin. In each case, antibiotic activity was determined either with cephazolin alone, or with alpha-ionone or beta-ionone alone, or with the composition of the invention.
as §3, with “polymyxin B,” for “ampicillin,”, “peptide” for “beta-lactam”, “oldest” for “most widely used”, “polymyxin B” for “ampicillin”, “Polymix-P,” for “Ampi-P,”, “polymyxin B.” for “ampicillin.”
as §3, with “chloramphenicol,” for “ampicillin,”, “phenicol” for “beta-lactam”, “oldest” for “most widely used”, “chloramphenicol” for “ampicillin”, “Chloram-P,” for “Ampi-P,”, “chloramphenicol.” for “ampicillin.”
(§5) The experiment was carried out with several resistant bacterial strains isolated in the hospital environment. The antibiotic used was chlortetracycline, one of the oldest antibiotics. An antibiotic pharmaceutical composition according to the invention was prepared by mixing chlortetracycline at different concentrations with carveol at a sub-inhibitory concentration of 0.3 g per liter of solution or excipient.

[3] = system: Escherichia coli; experiment: Static tests to determine MIC and MBC; assay type: cell-based; details: for MIC: antibiotic alone
Description: as §1, §2, §3, §4
as §3, with “polymyxin B,” for “ampicillin,”, “peptide” for “beta-lactam”, “oldest” for “most widely used”, “polymyxin B” for “ampicillin”, “Polymix-P,” for “Ampi-P,”, “polymyxin B.” for “ampicillin.”
as §3, with “chloramphenicol,” for “ampicillin,”, “phenicol” for “beta-lactam”, “oldest” for “most widely used”, “chloramphenicol” for “ampicillin”, “Chloram-P,” for “Ampi-P,”, “chloramphenicol.” for “ampicillin.”
as §5

[4] = system: Salmonella typhimurium; experiment: Static tests to determine MIC and MBC; assay type: cell-based; details: for MIC: antibiotic alone
Description: as §1, §2, §3, §4
as §3, with “polymyxin B,” for “ampicillin,”, “peptide” for “beta-lactam”, “oldest” for “most widely used”, “polymyxin B” for “ampicillin”, “Polymix-P,” for “Ampi-P,”, “polymyxin B.” for “ampicillin.”
as §3, with “chloramphenicol,” for “ampicillin,”, “phenicol” for “beta-lactam”, “oldest” for “most widely used”, “chloramphenicol” for “ampicillin”, “Chloram-P,” for “Ampi-P,”, “chloramphenicol.” for “ampicillin.”
as §5

[5] = system: Staphylococcus epidermidis; experiment: Static tests to determine MIC and MBC; assay type: cell-based; details: for MIC: antibiotic alone
Description: as §1
as §2, with “invention. […]” for “invention.”

[6] = system: Staphylococcus aureus; experiment: Static tests to determine MIC and MBC; assay type: cell-based; details: for MBC: carveol alone; for MIC: antibiotic alone
Description: as §1, §2
as §5, with “excipient. […] In each case, antibiotic activity was determined either with chlortetracycline alone, or with carveol alone, or with the composition of the invention.” for “excipient.”
as §3, with “streptomycin, an important member of” for “ampicillin, from”, “aminoside family” for “beta-lactam family,”, “among” for “one of”, “important” for “widely used”, “streptomycin” for “ampicillin”, “This pharmaceutical composition of the invention was named Ampi-P, for potentiated ampicillin.” left out
as §3, with “erythromycin, an important member of” for “ampicillin, from”, “macrolide family” for “beta-lactam family,”, “among” for “one of”, “important” for “widely used”, “erythromycin” for “ampicillin”, “This pharmaceutical composition of the invention was named Ampi-P, for potentiated ampicillin.” left out

[7] = system: amoxicillin-resistant Klebsiella pneumoniae; experiment: In vivo test in mice experimentally infected by intraperitoneal injection; details: organs of mice which died during the experiment; amoxicillin alone 10 mg/kg/day by gavage
Description: Groups of 10 mice were experimentally infected by intraperitoneal injection of 1,000,000 cells (colony-forming units) of amoxicillin-resistant Klebsiella pneumoniae.
The first group was composed of control mice which were infected and untreated.
The second group was composed of infected mice treated by gavage, 24 h post-infection, with amoxicillin alone at a dose of 10 mg/kg of body weight/day.
The third group was composed of infected mice treated by gavage, 24 h post-infection, with carveol alone at a dose of 120 mg/kg of body weight/day.
The fourth group was composed of infected mice treated by gavage, 24 h post-infection, with the pharmaceutical composition of the invention (AMOX-P) at a dose of 2 mg/kg of body weight/day of amoxicillin and 120 mg/kg of body weight/day of carveol.
The survival rate was measured over time. […] All the other mice died between the second and third day post-infection.

[8] = system: Escherichia coli strains susceptible to 5 μg/ml amoxicillin; assay type: cell-based
Description: Escherichia coli strains susceptible to 5 μg/ml amoxicillin were cultured in the presence of a sub-inhibitory concentration of 3 μg/ml, then seeded into nutrient medium (Muller Hinton) containing increasing concentrations of amoxicillin (4 then 5 then 6 μg/ml . . . ). The same procedure was carried out with amoxicillin potentiated by carvacrol at a concentration two times lower than the MIC of carvacrol alone, namely 500 μg/ml. This experiment was based on the principle that at each subcloning, a mutant resistant to the new amoxicillin concentration would multiply, giving rise to a strain more resistant than the strain from which the subcloning arose.

[9] = system: Mycobacterium fleii; experiment: Static tests to determine MIC and MBC; assay type: cell-based; details: for MIC: antibiotic alone, exponential growth phase
[10] = system: Mycobacterium fortuitum; experiment: Static tests to determine MIC and MBC; assay type: cell-based; details: Mycolicibacterium fortuitum; for MIC: antibiotic alone, exponential growth phase
[11] = system: bacterial strains isolated in the hospital environment; experiment: Static MIC/MBC tests, potentiation over all tested strains; assay type: cell-based; details: antibiotic combined with carveol, alpha-ionone or beta-ionone at 0.3 mg/ml
Description: as §1, §2
The experiment was carried out with several resistant bacterial strains isolated in the hospital environment. The antibiotic used was ampicillin, from the beta-lactam family, which is one of the most widely used antibiotics. […] In each case, antibiotic activity was determined either with ampicillin alone, or with carveol alone, or with the composition of the invention.
The experiment was carried out with several resistant bacterial strains isolated in the hospital environment. […] In each case, antibiotic activity was determined either with cephazolin alone, or with alpha-ionone or beta-ionone alone, or with the composition of the invention.
The experiment was carried out with several resistant bacterial strains isolated in the hospital environment. […] This pharmaceutical composition of the invention was named Polymix-P, for potentiated polymyxin B. In each case, antibiotic activity was determined either with polymyxin B alone, or with carveol alone, or with the composition of the invention.
The experiment was carried out with several resistant bacterial strains isolated in the hospital environment. […] In each case, antibiotic activity was determined either with chloramphenicol alone, or with carveol alone, or with the composition of the invention. […]

[12] = system: resistant mycobacterial strains isolated in a veterinary environment; experiment: Static MIC/MBC tests, potentiation over tested mycobacterial strains; assay type: cell-based; details: antibiotic combined with carvacrol or thymol at 0.3 mg/ml
[13] = first substance alone, exponential growth phase
[14] = starting from 3 μg/ml, potentiated: carvacrol 500 μg/ml
[15] = Bacillus subtilis, exponential growth phase, read-out: MIC
[16] = Escherichia coli, exponential growth phase, read-out: MIC
[17] = Salmonella enterica, TYPHIMURIUM, exponential growth phase, read-out: MIC
[18] = Staphylococcus epidermidis, exponential growth phase, read-out: MIC
[19] = Staphylococcus aureus, exponential growth phase

C=C(C)C1CC=C(C)C(O)C1 (mixture of isomers) [Carveol, carveol]
MBC [1]: 2000 µg/mL
MBC ([2]; Bacillus subtilis, carveol alone, Table 1, read-out: MBC): 2000 µg/mL
MBC [2, 13]: 2000 µg/mL
MBC ([3]; Escherichia coli, carveol alone, Table 1, read-out: MBC): 2000 µg/mL
MBC [3, 13]: 2000 µg/mL
MBC ([4]; Salmonella enterica, TYPHIMURIUM, carveol alone, Table 1, read-out: MBC): 2000 µg/mL
MBC [4, 13]: 2000 µg/mL
MBC ([5]; Staphylococcus epidermidis, carveol alone, Table 1, read-out: MBC): 2000 µg/mL
MBC [5, 13]: 2000 µg/mL
MBC ([6]; Staphylococcus aureus, Table 1, read-out: MBC): 2000 µg/mL
MBC ([6]; exponential growth phase): 2000 µg/mL

CC(=O)/C=C/C1C(C)=CCCC1(C)C (stereo not drawn) [Alpha-ionone, alpha-ionone]
MBC [2, 13]: 2000 µg/mL
MBC [3, 13]: 2000 µg/mL
MBC [4, 13]: 2000 µg/mL
MBC [5, 13]: 2000 µg/mL

CC1(C)S[C@@H]2[C@H](NC(=O)[C@H](N)c3ccc(O)cc3)C(=O)N2[C@H]1C(=O)O [Amoxicillin, amoxicillin]
Klebsiella pneumoniae loads in kidney, lung and bone marrow [7]: high loads
Final conc. (to which resistant mutants were selected) ([8]; 50 μg/ml was the highest concentration in the experiment): 50 µg/mL
No. of subclonings (to reach final conc.) ([8]; starting from 3 μg/ml): 9
Median conc. (to which resistant mutants were selected) [8, 14]: 17 µg/mL
No. of subclonings (to reach median conc.) [8, 14]: 4

CC1(C)S[C@@H]2[C@H](NC(=O)[C@H](N)c3ccccc3)C(=O)N2[C@H]1C(=O)O [Ampicillin, ampicillin]
MIC [2, 15]: > 50 µg/mL
MIC [3, 16]: > 50 µg/mL
MIC [4, 17]: > 50 µg/mL
MIC [5, 18]: > 50 µg/mL

CC(=O)/C=C/C1=C(C)CCCC1(C)C [Beta-ionone, beta-ionone]
MBC [2, 13]: 2000 µg/mL
MBC [3, 13]: 2000 µg/mL
MBC [4, 13]: 2000 µg/mL
MBC [5, 13]: 2000 µg/mL

Cc1ccc(C(C)C)cc1O [Carvacrol, carvacrol]
MBC [9]: 1000 µg/mL (≈ 6.66 mM)
MBC [10]: 1000 µg/mL (≈ 6.66 mM)

Cc1nnc(SCC2=C(C(=O)O)N3C(=O)[C@@H](NC(=O)Cn4cnnn4)[C@H]3SC2)s1 [Cephazolin, cephazolin]
MIC ([2]; exponential growth phase): >50 µg/mL
MIC ([3]; exponential growth phase): >50 µg/mL
MIC ([4]; exponential growth phase): >50 µg/mL
MIC ([5]; exponential growth phase): >50 µg/mL
times lower antibiotic concentration producing bactericidal activity versus antibiotic alone [11]: at least ten

O=C(N[C@H](CO)[C@H](O)c1ccc([N+](=O)[O-])cc1)C(Cl)Cl [Chloramphenicol, chloramphenicol]
MIC [2, 15]: > 50 µg/mL
MIC [3, 16]: > 50 µg/mL
MIC [4, 17]: > 50 µg/mL
MIC [5, 18]: > 50 µg/mL

CN(C)[C@@H]1C(O)=C(C(N)=O)C(=O)[C@@]2(O)C(O)=C3C(=O)c4c(O)ccc(Cl)c4[C@@](C)(O)[C@H]3C[C@@H]12 [Chlortetracycline, chlortetracycline]
MIC [2, 15]: > 50 µg/mL
MIC [3, 16]: > 50 µg/mL
MIC [4, 17]: > 50 µg/mL
MIC [6, 19]: > 50 µg/mL

CC[C@H]1OC(=O)[C@H](C)[C@@H](O[C@H]2C[C@@](C)(OC)[C@@H](O)[C@H](C)O2)[C@H](C)[C@@H](O[C@@H]2O[C@H](C)C[C@H](N(C)C)[C@H]2O)[C@](C)(O)C[C@@H](C)C(=O)[C@H](C)[C@@H](O)[C@]1(C)O [Erythromycin, erythromycin]
MIC [2, 15]: > 50 µg/mL
MIC [3, 16]: > 50 µg/mL
MIC [4, 17]: > 50 µg/mL
MIC [6, 19]: > 50 µg/mL
times lower antibiotic concentration producing bactericidal activity versus antibiotic alone [11]: two to five

NNC(=O)c1ccncc1 [Isoniazide, isoniazide]
MIC [9]: > 50 µg/mL
MIC [10]: > 50 µg/mL
times lower antibiotic concentration producing bactericidal activity versus antibiotic alone [12]: at least 25 times

CO[C@H]1/C=C/O[C@@]2(C)Oc3c(C)c(O)c4c(O)c(c(/C=N/N5CCN(C)CC5)c(O)c4c3C2=O)NC(=O)/C(C)=C\C=C\[C@H](C)[C@H](O)[C@@H](C)[C@@H](O)[C@@H](C)[C@H](OC(C)=O)[C@@H]1C [Rifampicin, rifampicin]
MIC [9]: > 75 µg/mL
MIC [10]: > 75 µg/mL
times lower antibiotic concentration producing bactericidal activity versus antibiotic alone [12]: at least 25 times

[H]/N=C(/N)N[C@H]1[C@H](O)[C@@H](O)[C@H](O[C@@H]2O[C@@H](C)[C@](O)(C=O)[C@H]2O[C@@H]2O[C@@H](CO)[C@H](O)[C@@H](O)[C@@H]2NC)[C@@H](N/C(N)=N\[H])[C@@H]1O [Streptomycin, streptomycin]
MIC [2, 15]: > 50 µg/mL
MIC [3, 16]: > 50 µg/mL
MIC [4, 17]: > 50 µg/mL
MIC [6, 19]: > 50 µg/mL
times lower antibiotic concentration producing bactericidal activity versus antibiotic alone [11]: at least 10 times

polymyxin B
MIC ([2]; exponential growth phase): >50 µg/mL
MIC ([3]; exponential growth phase): >50 µg/mL
MIC ([4]; exponential growth phase): 25 µg/mL
MIC ([5]; exponential growth phase): >50 µg/mL
